The target of series [1] is T1, Amine oxidase [flavin-containing] A (Rattus norvegicus, UniProt P21396).
T1 sequence (P21396 whole entry): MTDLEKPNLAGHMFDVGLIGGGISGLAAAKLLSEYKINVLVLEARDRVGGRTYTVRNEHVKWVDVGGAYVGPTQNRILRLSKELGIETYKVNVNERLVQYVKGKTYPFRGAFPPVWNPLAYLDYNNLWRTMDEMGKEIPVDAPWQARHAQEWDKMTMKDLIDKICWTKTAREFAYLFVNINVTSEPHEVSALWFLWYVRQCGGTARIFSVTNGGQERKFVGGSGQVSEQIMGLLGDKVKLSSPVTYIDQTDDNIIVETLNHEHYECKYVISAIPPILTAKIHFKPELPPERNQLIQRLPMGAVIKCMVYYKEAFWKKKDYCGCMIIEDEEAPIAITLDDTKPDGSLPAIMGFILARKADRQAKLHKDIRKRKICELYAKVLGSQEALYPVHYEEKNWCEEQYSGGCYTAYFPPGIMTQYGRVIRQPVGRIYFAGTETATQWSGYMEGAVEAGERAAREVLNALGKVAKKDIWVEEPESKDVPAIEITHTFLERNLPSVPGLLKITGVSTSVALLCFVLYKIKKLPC
Description: Inhibition of rat liver MAOA after 60 mins pre-incubation.

The target in series [2] is T2, Amine oxidase [flavin-containing] B (Rattus norvegicus, UniProt P19643).
T2 sequence (P19643 whole entry): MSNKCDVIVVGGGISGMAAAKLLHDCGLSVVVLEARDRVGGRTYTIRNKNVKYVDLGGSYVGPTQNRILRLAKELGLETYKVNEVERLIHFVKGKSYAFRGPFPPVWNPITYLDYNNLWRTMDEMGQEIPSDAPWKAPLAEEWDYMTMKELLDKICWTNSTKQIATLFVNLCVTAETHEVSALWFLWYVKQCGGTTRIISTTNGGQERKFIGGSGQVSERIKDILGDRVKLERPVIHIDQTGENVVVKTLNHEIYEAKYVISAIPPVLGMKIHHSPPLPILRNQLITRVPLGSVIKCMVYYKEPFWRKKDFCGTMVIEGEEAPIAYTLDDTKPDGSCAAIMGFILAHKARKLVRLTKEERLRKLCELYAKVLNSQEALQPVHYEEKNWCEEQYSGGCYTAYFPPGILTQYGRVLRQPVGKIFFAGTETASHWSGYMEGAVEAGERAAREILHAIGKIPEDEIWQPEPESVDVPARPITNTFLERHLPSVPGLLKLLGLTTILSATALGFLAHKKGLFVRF
Description: Inhibition of rat liver MAOB after 60 mins pre-incubation.

The test system of series [3] is Mus musculus. Description: Analgesic activity against p-Benzoquinone-induced writhings in Swiss Albino mouse assessed as number writhings at 100 mg/kg, po. In kind it is functional.
Series [4] concerns Mus musculus. Description: Inhibition of p-Benzoquinone-induced writhings in Swiss Albino mouse at 100 mg/kg, po relative to control. In kind it is functional. The following applies: for inhibition in vivo at 100 mg/kg: Mus musculus, Swiss Albino, po.
The subject of series [5] is Mus musculus. Description: Toxicity in Swiss Albino mouse assessed as ulcerogenic abdomen lesions at 100 mg/kg, po. The arrangement: dose 100 mg/kg, route oral. In kind it is organism-based. The following applies: in vivo.
Series [6] concerns Mus musculus. Nature of the series: Inhibition of carrageenan-induced hind paw oedema in Swiss Albino mouse at 100 mg/kg, po after 90 mins relative to control. In kind it is functional. The note with it: for inhibition in vivo at 100 mg/kg: Mus musculus, Swiss Albino, po, 1.5 h.
Series [7] relates to Mus musculus. Nature of the series: Inhibition of carrageenan-induced hind paw oedema in Swiss Albino mouse at 100 mg/kg, po after 180 mins relative to control. It counts as functional. The following applies: for inhibition in vivo at 100 mg/kg: Mus musculus, Swiss Albino, po, 3 h.
The test system of series [8] is Mus musculus. Description: Inhibition of carrageenan-induced hind paw oedema in Swiss Albino mouse at 100 mg/kg, po after 270 mins relative to control. In kind it is functional. The note with it: for inhibition in vivo at 100 mg/kg: Mus musculus, Swiss Albino, po, 4.5 h.
For series [9], the system named is Mus musculus. Nature of the series: Inhibition of carrageenan-induced hind paw oedema in Swiss Albino mouse at 100 mg/kg, po after 360 mins relative to control. It counts as functional. The note with it: for inhibition in vivo at 100 mg/kg: Mus musculus, Swiss Albino, po, 6 h.
Series [10] addresses T1, Amine oxidase [flavin-containing] A. Nature of the series: Inhibition of rat liver MAOA.
Series [11] deals with Mus musculus. Nature of the series: Inhibition of acetic acid-induced capillary permeability in Swiss Albino mouse at 100 mg/kg, po. In kind it is functional.
Series [12] addresses T2, Amine oxidase [flavin-containing] B. Nature of the series: Inhibition of rat liver MAOB.
Series [13] has as its system Mus musculus. Description: Inhibition of acetic acid-induced capillary permeability in Swiss Albino mouse at 10 mg/kg, po. The following applies: read-out: Inhibition.

SMILES strings stand for the structures. pIC50, pKi: −log10 of the molar value.

As for `CCNC(=S)N1N=C(c2ccc(C)cc2)CC1c1ccc[nH]1` (stereo not drawn), the pIC50 was 3.48 in series [1] and 3.43 in series [2]. The writhing count in the series on Mus musculus [3] came out at 41.3 writhings. In addition, the inhibition in vivo at 100 mg/kg in the series on Mus musculus [4] stood at 15.4%; in the series on Mus musculus [6] it was 4.9%; with Mus musculus [7], 10.5%; in the series on Mus musculus [8], 12.4%; with Mus musculus [9], 16.3%. In addition, in the series with Mus musculus [5], the Activity entry is “Non-toxic”.
For the compound `Cc1ccc(C2=NN(C(=S)Nc3ccccc3)C(c3ccc[nH]3)C2)cc1` (stereo not drawn), the negative logarithm of the IC50 (pIC50) in series [1] was 3.52; in series [2], 3.45. In addition, the writhing count in the series on Mus musculus [3] worked out at 45.2 writhings. Also, the Inhibition in the series on Mus musculus [4] amounted to 7.4%; in the series with Mus musculus [6] it was 9.1%; in the series on Mus musculus [7], 13.1%; in the series on Mus musculus [8], 6.1%; in the series with Mus musculus [9], 11.8%. Further, in the series with Mus musculus [5], the Activity result is “Non-toxic”.
For `CNC(=S)N1N=C(c2ccc(Cl)cc2)CC1c1ccc[nH]1` (stereo not drawn), the pIC50 in series [1] is 4.95; in [2] it was 3.38. The negative logarithm of the Ki (pKi) in series [10] is 4.88. The writhing count with Mus musculus [3] stood at 37.8 writhings. The inhibition in vivo at 100 mg/kg with Mus musculus [4] amounted to 22.5%; in the series on Mus musculus [7] it was 6.6%; with Mus musculus [8], 7.2%; with Mus musculus [9], 1.9%; in the series on Mus musculus [11], 20.7%.
For the compound `CCCNC(=S)N1N=C(c2ccc(Cl)cc2)CC1c1ccc[nH]1` (stereo not drawn), the pIC50 is 4.53 in series [1] and 3.38 in series [2]. For the same compound, the pKi in [10] was 4.48. Further, the writhing count in the series on Mus musculus [3] amounted to 20.5 writhings. Also, the inhibition in vivo at 100 mg/kg in the series on Mus musculus [4] came out at 57.9%; with Mus musculus [6], 19.8%; in the series with Mus musculus [7], 25.2%; in the series on Mus musculus [8] it was 23.9%; in the series with Mus musculus [9], 28.1%; in the series on Mus musculus [11], 28.3%. Besides, the Activity result in the series on Mus musculus [5] is reported as “Non-toxic”.
Consider `CCNC(=S)N1N=C(c2ccc(OC)cc2)CC1c1ccc[nH]1` (stereo not drawn), for which the pIC50 in series [1] was 3.40; in series [2] it was 4.66. The compound also showed a pKi in series [12] of 4.62. In the series with Mus musculus [3], the writhing count stood at 21.2 writhings. The inhibition in vivo at 100 mg/kg in the series with Mus musculus [4] was 56.6%; with Mus musculus [6] it was 23.2%; in the series on Mus musculus [7] it was 22.7%; in the series on Mus musculus [8] it was 18.9%; in the series with Mus musculus [9], 27.6%; with Mus musculus [11], 25.9%. In the series with Mus musculus [5], the Activity result was “Non-toxic”.
For the compound `CCCNC(=S)N1N=C(c2ccc(OC)cc2)CC1c1ccc[nH]1` (stereo not drawn), the pIC50 in [1] is 3.39; in [2], 4.54. This compound also gave a pKi in series [12] of 4.47. Also, the writhing count in the series on Mus musculus [3] stood at 19.5 writhings. The inhibition in vivo at 100 mg/kg amounted to 60% in the series with Mus musculus [4]; 20.3% in the series on Mus musculus [6]; 23.6% in the series with Mus musculus [7]; 22.6% with Mus musculus [8]; 32.8% in the series on Mus musculus [9]; 34.8% with Mus musculus [11]. Moreover, the Activity entry in the series with Mus musculus [5] is “Non-toxic”.
In the case of `CCNC(=S)N1N=C(c2ccc(Cl)cc2)CC1c1ccc[nH]1` (stereo not drawn), the pIC50 in [1] is 4.70; in series [2], 3.35. Also, the pKi in series [10] was 4.57. Moreover, the writhing count in the series with Mus musculus [3] came out at 21.5 writhings. The inhibition in vivo at 100 mg/kg in the series on Mus musculus [4] came out at 55.9%; in the series on Mus musculus [6], 16.1%; in the series with Mus musculus [7] it was 21.3%; in the series with Mus musculus [8], 20.6%; in the series on Mus musculus [9], 24%; in the series on Mus musculus [11], 23.5%. Also, the Activity result in the series on Mus musculus [5] is listed as “Non-toxic”.
On to `CNC(=S)N1N=C(c2ccc(OC)cc2)CC1c1ccc[nH]1` (stereo not drawn), for which the negative-log IC50 (pIC50) in series [1] is 3.37; in [2] it was 4.90. In addition, the pKi in series [12] is 4.90. Moreover, the writhing count in the series with Mus musculus [3] is 39.2 writhings. In addition, the inhibition in vivo at 100 mg/kg was determined as 19.7% with Mus musculus [4]; 14.2% in the series with Mus musculus [6]; 14.7% in the series on Mus musculus [7]; 10.5% with Mus musculus [8]; 17.7% in the series with Mus musculus [9]. Moreover, the Activity result in the series with Mus musculus [5] was “Non-toxic”.
With `CNC(=S)N1N=C(c2ccc(C)cc2)CC1c1ccc[nH]1` (stereo not drawn), the pIC50 was 3.53 in series [1] and 3.46 in series [2]. In the series on Mus musculus [3], the writhing count amounted to 39.7 writhings. In addition, the inhibition in vivo at 100 mg/kg is 18.6% in the series with Mus musculus [4]; 13.2% in the series on Mus musculus [6]; 11.2% in the series with Mus musculus [7]; 12.2% in the series with Mus musculus [8]; 16.3% in the series with Mus musculus [9]. The Activity result in the series with Mus musculus [5] was “Non-toxic”.
On to `CCCNC(=S)N1N=C(c2ccc(C)cc2)CC1c1ccc[nH]1` (stereo not drawn), for which the pIC50 was 3.43 in series [1] and 3.41 in series [2]. The writhing count in the series on Mus musculus [3] was found to be 25.3 writhings. Further, the inhibition in vivo at 100 mg/kg with Mus musculus [4] came to 48.2%; in the series with Mus musculus [6], 14.6%; with Mus musculus [7], 20.9%; in the series with Mus musculus [8], 15.7%; with Mus musculus [9], 22.7%. Further, the Activity result in the series with Mus musculus [5] is given as “Non-toxic”.
`COc1ccc(C2=NN(C(=S)Nc3ccccc3)C(c3ccc[nH]3)C2)cc1` (stereo not drawn): the results for the negative-log IC50 (pIC50) in series [1] and in [2] were 3.37 and 4.52, respectively. For the same compound, the pKi in [12] is 4.43. For the same compound, in the series with Mus musculus [3], the writhing count was determined as 25.2 writhings. Moreover, the inhibition in vivo at 100 mg/kg in the series with Mus musculus [4] is 48.4%; in the series on Mus musculus [6], 20.7%; in the series on Mus musculus [7], 22.6%; in the series on Mus musculus [8], 16.5%; in the series on Mus musculus [9] it was 21.6%; in the series with Mus musculus [11], 22.3%. Further, the Activity entry in the series on Mus musculus [5] is “Non-toxic”.
In the case of `Cl.S=C(Nc1ccccc1)N1N=C(c2ccc(Cl)cc2)CC1c1ccc[nH]1` (stereo not drawn), the figures for the pIC50 in series [1] and in series [2] were 4.23 and 3.36, respectively. This compound showed a pKi in series [10] of 4.22. Moreover, in the series on Mus musculus [5], the Activity result was “Non-toxic”.
In the case of `CC(=O)Oc1ccccc1C(=O)O` [ASPIRIN], in the series on Mus musculus [3], the Activity turned out to be 22.3. The inhibition in vivo at 100 mg/kg in the series with Mus musculus [4] amounted to 54.3%.
In the case of `COc1ccc2c(c1)c(CC(=O)O)c(C)n2C(=O)c1ccc(Cl)cc1` [INDOMETHACIN], the inhibition in vivo at 100 mg/kg is 32.3% with Mus musculus [6], 37.1% in the series with Mus musculus [7], 33.6% in the series with Mus musculus [8] and 42.2% in the series with Mus musculus [9]. Moreover, in the series on Mus musculus [13], the inhibition in vivo at 10 mg/kg is 48.1%.
For `C#CCN(C)Cc1ccccc1` [PARGYLINE], the pIC50 in series [1] is 3.41; in series [2], 5.55.

(Values after ChEMBL document CHEMBL1143749, “A new therapeutic approach in Alzheimer disease: some novel pyrazole derivatives as dual MAO-B inhibitors and antiinflammatory analgesics” (Bioorg Med Chem, 2007).)
